The values that follow come from patent US6403647B1, “Pulsed administration of compositions for the treatment of blood disorders” (priority 1996, dated 2002).

Data set [1] in a line: DNA fragmentation assays (cell viability). It counts as cell-based. The text has this:
Normal cell viability, the viability of an untransformed or uninfected cell, can be determined from analyzing the effects of the composition on one or more biological processes of the cell. Detrimental interference with one or more of these cellular processes becomes significant when the process becomes abnormal. Examples of quantitatable and qualifiable biological processes include the processes of cell division, protein synthesis, nucleic acid (DNA or RNA) synthesis, nucleic acid (principally DNA) fragmentation and apoptosis. Others processes include specific enzyme activities, the activities of the cellular transportation systems such as the transportation of amino acids by system A (neutral), system B (acidic) or system C (basic), and the expression of a cell surface protein. […] Abnormal cell division, for example, can be mitosis which occurs too rapidly, as in a malignancy, or unstably, resulting in programmed cell death or apoptosis, detected by increased DNA degradation. The determination of abnormal cell viability can be made on comparison with untreated control cells. Compositions preferably increase normal cell viability. Increased cell viability can be determined by those of ordinary skill in the art using, for example, DNA fragmentation analysis. […] Determinations of increased or decreased viability can also be concluded from an analysis of the results of multiple different assays. Where multiple tests provide conflicting results, accurate conclusions can still be drawn by those of ordinary skill based upon the cell type, the correctness or correlation of the tests with actual conditions and the type of composition.
Patients with blood disorders are typically quite infirm with, for example, iron damaged organs and systems. Most treatments further tax the patient's already frail health in an effort to combat the disorder.

For data set [2], the system named is fetal globin. Put plainly: Fetal globin production in erythroid progenitor colonies (Bfu-e), sickle cell anemia patient. As to conditions: controls 48% of non-α globin. It counts as cell-based, human.
In data set [3] the test system is Bfu-e. Put plainly: Erythroid colony (Bfu-e) proliferation with maximal growth factors, normal subject. The format is cell-based, human. As to conditions: 0.2-0.5 mM where given. The text has this: Erythroid cells were obtained, as described in Example 1, from a normal subject and cultured on semi-solid medium in the presence of a maximal amount of erythroid growth factors including IL-6, GM-CSF, SCF and EPO. Erythroid proliferation in the presence of these factors is expected to be maximal and, therefore, any increases observed would be significant.

Data set [4] deals with fetal globin. Put plainly: Proportion of fetal globin-expressing cells in culture, fluorescent antibodies, sickle cell patient. The format is cell-based, human. As to conditions: 14 days, controls 40.7%. The procedure:
In a fourth experiment, erythroid cells were obtained from a sickle cell patient. These cells were established in culture both with and without test a variety of test compounds. Cultures were incubated for 14 days in methylcellulose media with maximal concentrations of all hematopoietic growth factors (GM-CSF, SCF, EPO). Colonies were analyzed using fluorescent monoclonal antibodies against fetal globin to determine the proportion of erythroid cells that expressed fetal globin.

Data set [5] concerns system A transport of amino acids. Nature of the data set: Uptake of 3H-methyl-aminoisobutyric acid (MeAIB) into erythroblasts. The settings on record: for amino acid (MeAIB) uptake / transport: 2.0 mM, relative to untreated fetal liver erythroid cells; for inhibition of MeAIB uptake: after 60 and 120 minutes. The format is cell-based. The procedure: Erythroblasts were tested for alterations in uptake of radio-labelled amino acid (^3H-methyl-aminoisobutyric acid; MeAIB) in the presence of AB (arginine butyrate), AMHCA (α-methylhydrocinnamic acid), PAA (phenoxyacetic acid), and IBT (isobutyramide), each at 2.0 mM.

Data set [6] relates to human fetal liver cells. Put plainly: Erythroid progenitor colony proliferation, fetal liver cells. It counts as cell-based. The settings on record: 0.2 mM, maximal growth factors, p<0.025. The procedure:
In a third experiment, human fetal liver cells were also tested. As fetal cells are known not to respond to the presence of the growth factors, any increases observed are highly significant. Erythroid progenitor cultures were established from fetal liver and plated with maximal amounts of growth factors. To these plates were added; lane 1, 2-(4′-methoxyphenoxy) propionic acid; lane 2, phenoxyacetic acid; and lane 3, α-methylhydrocinnamic acid; all at a concentration of 0.2 mM.

In data set [7] the test system is K562 human erythroleukemia cells. The settings on record: cited from earlier work.
Data set [8] relates to γ-globin expression. Put plainly: γ-globin mRNA by RNase protection in erythroid cell cultures of normal individuals. It counts as cell-based, human. The settings on record: for x increase: over ChFCS.
Experimental: Fetal globin production was determined in erythroid progenitor cells cultured in the presence or absence of test compositions. Erythroid cells were purified from blood obtained from a normal individual . […] Erythroid cell cultures were established with the following conditions: IMDM methylcellulose media, erythropoietin (3 U/ml), the human subjects' mononuclear cells, 30% charcoal-absorbed fetal calf serum, and the test compounds at varying micromolar concentrations.
Compounds were tested for their ability to induce expression of fetal globin expression in erythroid cell cultures established from the peripheral blood of normal individuals. Colonies were harvested and assayed for globin mRNA following 14 days of culture. Each compound was tested in duplicate cultures from 2-4 individual human subjects. Globin expression was quantitated by RNase protection assay for % gamma globin as a fraction of total non-alpha globin (% gamma/gamma+beta globin mRNA).

With `CC(C)C(N)=O` [isobutyramide], in data set [1], the “cell viability in DNA fragmentation assays” value was “decrease cell viability”.

As to `O=C(O)CSc1ccccc1` [thiophenoxyacetic acid], in data set [2], the “increase in fetal globin over controls” value was 38%.

`CC(Oc1ccc(Cl)cc1)C(=O)O` (centres unmarked) [4-chlorophenoxy-2-propionic acid]: the Bfu-e growth entry in data set [3] is recorded as “further increase Bfu-e growth”. Besides, the “Increase in γ-Globin Expressing Cells” value in data set [4] (0.5 mM) is listed as 59.7%.

Turning to `COCC(=O)O` [methoxyacetic acid], the “increase in fetal globin over controls” value in data set [2] is given as 3%.

`CC(=Cc1ccccc1)C(=O)O` [α-methylcinnamic acid]: the “increase in fetal globin over controls” value in data set [2] is 12%.

Turning to `CCCC(=O)OCC` [butyric acid ethyl ester], the “DNA fragmentation in fragmentation assays” value in data set [1] is reported as “reduce DNA fragmentation”.

As for `CCOC(=O)/C=C/C(=O)O` [fumaric acid monoethyl ester], the “amino acid (MeAIB) uptake / transport” value in data set [5] is on record as “did not inhibit amino acid transport”. Also, the “Increase in γ-Globin Expressing Cells” value in data set [4] (concentration not given) is 59.1%.

In the case of `CCC(C)(C)C(=O)O` [2,2-dimethylbutyric acid], in data set [5], the “amino acid (MeAIB) uptake / transport” value is recorded as “moderate inhibition of transport” and the “inhibition of MeAIB uptake” value is reported as “somewhat less so”. Also, the “Increase in γ-Globin Expressing Cells” value in data set [4] (concentration not given) turned out to be 70.1%. Also, the “increase in fetal globin over controls” value in data set [2] was 24%.

Regarding `COc1ccc(OC(C)C(=O)O)cc1` (centres unmarked) [2-(4′-methoxyphenoxy) propionic acid], in data set [3], the Bfu-e growth result was “further increase Bfu-e growth”. Moreover, the proliferation of colonies result in data set [6] was “increased proliferation of colonies”. In data set [5], the “amino acid (MeAIB) uptake / transport” value is “moderate inhibition of transport” and the “inhibition of MeAIB uptake” value was “somewhat less so”.

Take `CCCCCC(=O)[O-].CCCCCC(=O)[O-].[Ca+2]` [caproate]: in data set [7], the “ability to increase fetal globin expression” value was “much less of an effect”.

diethyl butyric acid: in data set [5], the “amino acid (MeAIB) uptake / transport” value is given as “did not inhibit amino acid transport”.

As to `CCCCCCCC(=O)O` [caprylate], the “ability to increase fetal globin expression” value in data set [7] was “much less of an effect”.

For `CC(Cc1ccccc1)C(=O)O` (stereo not drawn) [α-methylhydrocinnamic acid], the Bfu-e growth result in data set [3] is “further increase Bfu-e growth”. The proliferation of colonies result in data set [6] is reported as “increased proliferation of colonies”. Moreover, in data set [5], the “system A transport of amino acids” value is listed as “do not significantly alter system A transport of amino acids” and the “amino acid (MeAIB) uptake / transport” value is reported as “did not inhibit amino acid transport”. Further, the “Increase in γ-Globin Expressing Cells” value in data set [4] (concentration not given) is given as 64.4%. For the same compound, the “increase in fetal globin over controls” value in data set [2] is given as 18%.

On to `CCCCCCCCCC(=O)O` [caprate], for which the “ability to increase fetal globin expression” value in data set [7] is “much less of an effect”.

As to `CCC(=O)NO` [propionyl hydroxamate], the x increase in data set [8] (1 μM, 990709) is given as 1.1 x; in data set [8] (8 μM, 990709), 0.9 x; in data set [8] (10 μM, 990709), 1.5 x; in data set [8] (25 μM, 991208), 1.5 x; in data set [8] (50 μM, 0601-0) it was 2.5 x; in data set [8] (50 μM, 990709), 3.0 x. The x increase in data set [8] (50 μM, 991208) was 2.5 x; in data set [8] (100 μM, 0601-0) it was 4.8 x; in data set [8] (100 μM, 990709), 4.6 x; in data set [8] (100 μM, 991208) it was 4.3 x; in data set [8] (125 μM, 991208) it was 4.7 x; in data set [8] (150 μM, 0601-0), 6.3 x. The compound also yielded a x increase in data set [8] (150 μM, 991208) of 6.7 x. In addition, the “γ/γ + β” value in data set [8] (1 μM, 990709, subject 99-4) is on record as 1.39%; in data set [8] (1 μM, 990709, subject 99-5), 2.39%; in data set [8] (8 μM, 990709, subject 99-4), 1.19%; in data set [8] (8 μM, 990709, subject 99-5) it was 1.73%; in data set [8] (10 μM, 990709, subject 99-4), 1.86%; in data set [8] (10 μM, 990709, subject 99-5), 3.28%. The “γ/γ + β” value is reported as 12.17% in data set [8] (25 μM, 991208, subject 00-1); 12.38% in data set [8] (25 μM, 991208, subject 00-3); 9.57% in data set [8] (50 μM, 0601-0, subject 00-3); 3.80% in data set [8] (50 μM, 990709, subject 99-4); 6.40% in data set [8] (50 μM, 990709, subject 99-5); 20.79% in data set [8] (50 μM, 991208, subject 00-1). Moreover, the “γ/γ + β” value in data set [8] (50 μM, 991208, subject 00-3) came out at 21.30%; in data set [8] (100 μM, 0601-0, subject 00-3), 16.66%; in data set [8] (100 μM, 990709, subject 99-4), 7.78%; in data set [8] (100 μM, 990709, subject 99-5) it was 8.80%; in data set [8] (100 μM, 991208, subject 00-1), 32.74%; in data set [8] (100 μM, 991208, subject 00-3), 38.33%. In addition, the “γ/γ + β” value is recorded as 37.83% in data set [8] (125 μM, 991208, subject 00-1); 39.14% in data set [8] (125 μM, 991208, subject 00-3); 24.40% in data set [8] (150 μM, 0601-0, subject 00-3); 59.60% in data set [8] (150 μM, 991208, subject 00-1); 51.56% in data set [8] (150 μM, 991208, subject 00-3). The “γ/γ + β mean” value is 1.89% in data set [8] (1 μM, 990709, subjects 99-4, 99-5); 1.46% in data set [8] (8 μM, 990709, subjects 99-4, 99-5); 2.57% in data set [8] (10 μM, 990709, subjects 99-4, 99-5); 12.27% in data set [8] (25 μM, 991208, subjects 00-1, 00-3); 9.57% in data set [8] (50 μM, 0601-0, subject 00-3 only); 5.10% in data set [8] (50 μM, 990709, subjects 99-4, 99-5). The “γ/γ + β mean” value in data set [8] (50 μM, 991208, subjects 00-1, 00-3) was 21.05%; in data set [8] (100 μM, 0601-0, subject 00-3 only), 16.66%; in data set [8] (100 μM, 990709, subjects 99-4, 99-5), 7.72%; in data set [8] (100 μM, 991208, subjects 00-1, 00-3) it was 35.54%; in data set [8] (125 μM, 991208, subjects 00-1, 00-3) it was 38.49%; in data set [8] (150 μM, 0601-0, subject 00-3 only), 24.40%. The “γ/γ + β mean” value in data set [8] (150 μM, 991208, subjects 00-1, 00-3) is 55.58%. The “fetal (gamma) globin expression, fold over control cultures” value in data set [8] (5 to 150 micromolar) is on record as 1.5-6.7 fold.
